We go through three molecules from patent US20140051635A1, “COMBINATION THERAPY FOR TREATMENT OF CANCER” (UNIVERSITY OF SOUTH ALABAMA, priority 2011, published 2014).

Data set [1] concerns SPARC expression in colon cancer cell lines and primary colon cancers. The conditions noted are these: colon cancer cell lines and primary colon cancers with SPARC promoter hypermethylation; cited from earlier work.
In data set [2] the test system is breast cancer, patients pre-treated with doxorubicin. The conditions noted are these: cited from earlier work.
The conditions of data set [3]: rats; cited from earlier work.
For data set [4], the system named is higher-risk MDS. Conditions: cited from earlier work.
For data set [5] the following is noted: mice; cited from earlier work.
In data set [6] the test system is advanced or metastatic solid tumors. Conditions: human, in vivo.
Source text: Eligible patients include those with solid tumors that progressed or were stable as best response on at least one previous therapy. […] Further criteria included: female and male patients; age≧19 years; ECOG PS≦2; adequate bone marrow, liver and heart function; and signed written-informed consent.
Serum and/or tissue samples, where appropriate, were collected for correlative studies.
Outcome evaluation for primary endpoints included: type, incidence, severity, timing, seriousness, and relatedness of adverse events, and laboratory abnormalities; and objective response rate. Outcome evaluation for secondary endpoints included: progression-free survival (PFS); and expression of tissue SPARC protein. Statistical Analysis included the standard 3+3 design. Patients were accrued to each dose level in cohorts of up to 3-6. Escalation was continued until a dose limiting toxicity (DLT) was observed or the highest dose-level was reached. The best response, including complete response (CR), partial response (PR), stable disease (SD), or progression of disease (PD), for each patient was determined. Descriptive statistics were used to summarize all patient characteristics, treatment administration and compliance, and protein biomarkers. Safety data were determined for all patients receiving at least 1 dose of study treatment.
Data set [7] deals with AML. The conditions noted are these: 27 patients assigned to azacitidine; cited from earlier work.
For data set [8] the following is noted: parenteral, administered weekly; cited from earlier work.
The test system of data set [9] is MDS. Conditions: MDS patients; cited from earlier work.
For data set [10] the following is noted: cited from earlier work.

Where two headings read alike, the source gives them in different places.

For the molecule `Nc1ncn([C@H]2C[C@H](O)[C@@H](CO)O2)c(=O)n1` [5Aza-dC], the SPARC expression entry in data set [1] is on record as “able to upregulate SPARC expression in most cases”.

As for `CC(=O)O[C@@]12CO[C@@H]1C[C@H](O)[C@@]1(C)C(=O)[C@H](O)C3=C(C)[C@@H](OC(=O)[C@H](O)[C@@H](NC(=O)OC(C)(C)C)c4ccccc4)C[C@@](O)([C@@H](OC(=O)c4ccccc4)[C@H]21)C3(C)C` [docetaxel], in data set [2], the median overall survival is 11.4 months and the “median time to disease progression” value is 4.4 months.

As to `Nc1ncn([C@@H]2O[C@H](CO)[C@@H](O)[C@H]2O)c(=O)n1` [azacitidine], the “embryotoxicity and reproductive performance” value in [3] is “embryotoxic and reduced the reproductive performance”; in data set [5] it was “embryotoxic and reduced the reproductive performance”. For the same molecule, in [4] (75 mg/m^2/day x 7 days in 28 day cycles, N=179), the median overall survival is 24.4 months. Moreover, the two-year survival in data set [4] (azacitidine arm) is 51%. The tolerability entry was “well tolerated” in [4] (in vivo) and “generally well-tolerated” in data set [10] (75 mg/m^2 single SC injection or IV infusion over 10 minutes). The “maximum tolerated dose of azacitadine in this regimen” value in [6] turned out to be 75 mg/m^2. Moreover, in data set [7], the median survival time is on record as 19.3 months. Besides, the maximum tolerated doses result in data set [8] was “up to 500 mg/m^2”. The partial remission entry in data set [9] is “rare”. Also, the “systemic IV clearance” value in data set [10] (75 mg/m^2 IV) is recorded as 147 L/h. In [10] (75 mg/m^2 SC vs IV), the “bioavailability for the SC dose” value is about 89%.
